Experimental data published in patent US20230049231A1 (priority 2019, published 2023).

Key:
[1] = target: T1, Kv1.3 potassium channel (Homo sapiens, UniProt P22001); assay: Kv1.3 potassium channel blocker activity, automated whole-cell patch clamp (Patchliner); format: cell-based
T1 construct: expressed in transfected cells
Procedure, shortened: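 IC50 came from Hill-equation fits of peak and AUC currents from the final pulse at each concentration, normalized to compound-free control. Compounds applied consecutively at 30 nM to 100 μM (up to 0.3% DMSO) to Kv1.3-expressing CHO-K1 cells, P/4 leak subtraction. Pulses were +40 mV, 100 ms, from −90 mV holding, at 0.1 Hz on Patchliner.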

[2] = target: T2, hERG channel (Homo sapiens, UniProt Q12809); assay: hERG electrophysiology, automated whole-cell patch clamp (Patchliner); format: cell-based
T2 construct: expressed in transfected cells
T2 sequence (Q12809 whole entry): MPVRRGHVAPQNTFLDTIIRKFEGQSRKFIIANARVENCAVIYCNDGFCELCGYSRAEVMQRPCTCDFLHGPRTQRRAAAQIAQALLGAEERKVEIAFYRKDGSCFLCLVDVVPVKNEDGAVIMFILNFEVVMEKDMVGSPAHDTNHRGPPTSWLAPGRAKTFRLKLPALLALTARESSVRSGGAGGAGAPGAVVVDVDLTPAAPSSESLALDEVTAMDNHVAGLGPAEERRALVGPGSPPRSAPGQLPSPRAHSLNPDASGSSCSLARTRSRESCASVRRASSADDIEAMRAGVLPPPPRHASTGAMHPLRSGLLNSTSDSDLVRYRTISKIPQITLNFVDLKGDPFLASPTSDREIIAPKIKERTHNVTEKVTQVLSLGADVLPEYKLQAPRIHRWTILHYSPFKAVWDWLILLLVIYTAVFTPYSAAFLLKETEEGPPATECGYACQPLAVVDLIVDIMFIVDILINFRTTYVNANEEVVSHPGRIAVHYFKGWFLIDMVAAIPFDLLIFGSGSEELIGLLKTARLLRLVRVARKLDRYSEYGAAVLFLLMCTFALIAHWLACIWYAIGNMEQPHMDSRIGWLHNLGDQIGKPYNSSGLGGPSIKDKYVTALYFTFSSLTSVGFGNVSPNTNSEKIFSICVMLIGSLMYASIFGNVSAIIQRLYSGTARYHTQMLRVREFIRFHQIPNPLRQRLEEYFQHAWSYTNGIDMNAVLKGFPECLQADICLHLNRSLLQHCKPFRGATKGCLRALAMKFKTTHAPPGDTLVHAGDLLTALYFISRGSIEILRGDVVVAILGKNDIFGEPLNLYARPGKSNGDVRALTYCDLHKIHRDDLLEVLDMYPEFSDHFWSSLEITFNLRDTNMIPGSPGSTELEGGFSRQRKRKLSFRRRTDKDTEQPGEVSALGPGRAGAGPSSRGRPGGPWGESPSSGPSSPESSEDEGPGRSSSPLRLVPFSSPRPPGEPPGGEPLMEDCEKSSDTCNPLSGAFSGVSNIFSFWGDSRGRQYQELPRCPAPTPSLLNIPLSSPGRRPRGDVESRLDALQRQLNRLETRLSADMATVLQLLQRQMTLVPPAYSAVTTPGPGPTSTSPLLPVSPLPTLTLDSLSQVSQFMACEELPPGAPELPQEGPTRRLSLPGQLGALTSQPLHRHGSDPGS
Experimental: This assay is used to evaluate the disclosed compounds' inhibition activities against the hERG channel.
CHO-K1 cells stably expressing hERG were grown in Ham's F-12 Medium with glutamine containing 10% heat-inactivated FBS, 1% penicillin/streptomycin, hygromycin (100 μg/ml) and G418 (100 μg/ml). Cells were grown in culture flasks at 37° C. in a 5% CO2-humidified incubator.
The cells were bathed in an extracellular solution containing 140 mM NaCl, 4 mM KCl, 2 mM CaCl2), 1 mM MgCl2, 5 mM glucose, and 10 mM HEPES; pH adjusted to 7.4 with NaOH; 295-305 mOsm. The internal solution contained 50 mM KCl, 10 mM NaCl, 60 mM KF, 20 mM EGTA, and 10 mM HEPES; pH adjusted to 7.2 with KOH; 285 mOsm. All compounds were dissolved in DMSO at 30 mM. Compound stock solutions were freshly diluted with external solution to concentrations of 30 nM, 100 nM, 300 nM, 1 μM, 3 μM, 10 μM, 30 μM and 100 μM. The highest content of DMSO (0.3%) was present in 100 μM.
The voltage protocol (see Table 3) was designed to simulate voltage changes during a cardiac action potential with a 300 ms depolarization to +20 mV (analogous to the plateau phase of the cardiac action potential), a repolarization for 300 ms to −50 mV (inducing a tail current) and a final step to the holding potential of −80 mV. The pulse frequency was 0.3 Hz. Control (compound-free) and compound pulse trains for each compound concentration applied contained 70 pulses.
Whole-cell current recordings and compound application were enabled by means of an automated patch clamp platform Patchliner (Nanion). EPC 10 patch clamp amplifier (HEKA) along with Patchmaster software (HEKA Elektronik Dr. Schulze GmbH) was used for data acquisition. Data were sampled at 10 kHz without filtering. Increasing compound concentrations were applied consecutively to the same cell without washouts in between.
AUC and PEAK values were obtained with Patchmaster (HEKA Elektronik Dr. Schulze GmbH). To determine IC50 the last single pulse in the pulse train corresponding to a given compound concentration was used. Obtained AUC and PEAK values in the presence of compound were normalized to control values in the absence of compound. Using Origin (OridinLab), IC50 was derived from data fit to Hill equation: Icompound/Icontrol=(100-A)/(1+([compound]/IC50)nH)+A, where IC50 is the concentration at which current inhibition is half-maximal, [compound] is the applied compound concentration, A is the fraction of current that is not blocked and nH is the Hill coefficient.

[3] = Kv1.3 potassium channel, whole-cell patch clamp
[4] = hERG channel, whole-cell patch clamp
[5] = CHO-K1 cells stably expressing Kv1.3, 100 ms pulses from -90 mV to +40 mV, 0.1 Hz
[6] = CHO-K1 cells stably expressing hERG, +20 mV 300 ms, -50 mV 300 ms tail current, 0.3 Hz

T1 sequence (P22001 whole entry): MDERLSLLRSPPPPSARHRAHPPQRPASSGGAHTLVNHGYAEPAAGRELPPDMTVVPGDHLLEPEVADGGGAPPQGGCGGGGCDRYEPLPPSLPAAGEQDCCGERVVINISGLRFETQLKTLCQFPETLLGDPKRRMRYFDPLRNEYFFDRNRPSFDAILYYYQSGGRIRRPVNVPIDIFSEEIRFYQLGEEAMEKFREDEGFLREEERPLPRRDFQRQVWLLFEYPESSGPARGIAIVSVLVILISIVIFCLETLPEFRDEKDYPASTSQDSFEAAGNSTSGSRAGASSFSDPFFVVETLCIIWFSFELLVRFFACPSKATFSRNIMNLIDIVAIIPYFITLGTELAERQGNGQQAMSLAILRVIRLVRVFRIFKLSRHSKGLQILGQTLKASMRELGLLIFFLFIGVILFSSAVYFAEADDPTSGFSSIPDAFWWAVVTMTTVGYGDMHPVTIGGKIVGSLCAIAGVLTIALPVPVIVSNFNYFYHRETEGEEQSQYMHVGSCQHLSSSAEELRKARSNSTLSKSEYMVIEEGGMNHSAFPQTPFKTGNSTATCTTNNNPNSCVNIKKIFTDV

Row | Structure (SMILES) | IC50 [1, 3] | IC50 [1, 5] | IC50 [2, 4] | IC50 [2, 6]
1 | O=C([C@H](O)CO)N1CC(=O)N2CC[C@H](c3c(O)ccc(Cl)c3Cl)C[C@@H]2C1 (relative stereo) [Compound 10, (8S,9aR)-rel-8-(2,3-dichloro-6-hydroxyphenyl)-2-[(2R)-2,3-dihydroxypropanoyl]-hexahydro-1H-pyrido[1,2-a]pyrazin-4-one] | – | < 1000 nM | – | > 30 µM
2 | CC[C@H](O)CC(=O)N1CC(=O)N2C[C@@H](c3c(O)ccc(Cl)c3Cl)C[C@H]2C1 [Compound 70, (7R,8aS)-7-(2,3-dichloro-6-hydroxyphenyl)-2-[(3S)-3-hydroxypentanoyl]-hexahydropyrrolo [1,2-a]pyrazin-4-one] | < 1000 nM | – | < 30 µM | –
3 | O=C1CC(CN2CCNCC2)C[C@@H]2C[C@H](c3c(O)ccc(Cl)c3Cl)CN12 (stereo partly drawn) [Compound 241, (2R,8aR)-2-(2,3-dichloro-6-hydroxyphenyl)-7-(piperazin-1-ylmethyl)-hexahydro-1H-indolizin-5-one] | < 1000 nM | – | > 30 µM | –
4 | O=C(C1CNC1)N1CC(=O)N2CC[C@@H](c3c(O)ccc(Cl)c3Cl)C[C@H]2C1 (relative stereo) [Compound 32, (8S,9aR)-rel-2-(azetidine-3-carbonyl)-8-(2,3-dichloro-6-hydroxyphenyl)-hexahydro-1H-pyrido[1,2-a]pyrazin-4-one] | – | < 1000 nM | – | > 30 µM
5 | O=C([C@@H]1OCC[C@@H]1O)N1CC(=O)N2C[C@@H](c3c(O)ccc(Cl)c3Cl)C[C@H]2C1 [Compound 74, (7R,8aS)-7-(2,3-dichloro-6-hydroxyphenyl)-2-[(2R,3S)-3-hydroxyoxolane-2-carbonyl]-hexahydropyrrolo [1,2-a]pyrazin-4-one] | < 1000 nM | – | > 30 µM | –
6 | C[C@@H](O)C(=O)N1CC(=O)N2CC[C@@H](c3c(O)ccc(Cl)c3Cl)C[C@H]2C1 [Compound 16, (8R,9aS)-8-(2,3-dichloro-6-hydroxyphenyl)-2-[(2R)-2-hydroxypropanoyl]-hexahydro-1H-pyrido[1,2-a]pyrazin-4-one] | – | < 1000 nM | – | > 30 µM
7 | O=C1CNC[C@@H]2C[C@H](c3c(O)ccc(Cl)c3Cl)CCN12 [Compound 15] | – | < 1000 nM | – | < 30 µM
8 | O=C(CO)N1CC(=O)N2CC[C@@H](c3c(O)cc(Cl)c(Cl)c3Cl)C[C@H]2C1 [Compound 38, (8R,9aS)-2-(2-hydroxyacetyl)-8-(2,3,4-trichloro-6-hydroxyphenyl)octahydro-4H-pyrido[1,2-a]pyrazin-4-one] | – | < 1000 nM | – | > 30 µM
9 | O=C(N1CC[C@H](O)C1)N1CC(=O)N2C[C@@H](c3c(O)ccc(Cl)c3Cl)C[C@H]2C1 [Compound 102, (7R,8aS)-7-(2,3-dichloro-6-hydroxyphenyl)-2-[(3S)-3-hydroxypyrrolidine-1-carbonyl]-hexahydropyrro[1,2-a]pyrazine-4-one] | < 1000 nM | – | > 30 µM | –
10 | O=C1O[C@@H]([C@H](O)CO)[C@@H]2C[C@H](c3c(O)ccc(Cl)c3Cl)CN12 (single isomer, unassigned) [Compound 261] | < 1000 nM | – | > 30 µM | –
11 | O=C1O[C@@H](CCO)[C@@H]2C[C@H](c3c(O)ccc(Cl)c3Cl)CN12 (single isomer, unassigned) [Compound 271] | < 1000 nM | – | < 30 µM | –
12 | O=C1CN(C2COCC2O)C[C@@H]2C[C@H](c3c(O)ccc(Cl)c3Cl)CN12 (stereo partly drawn) [Compound 149, (7R,8aS)-7-(2,3-dichloro-6-hydroxyphenyl)-2-(4-hydroxyoxolan-3-yl)-hexahydropyrrolo[1,2-a]pyrazin-4-one] | < 1000 nM | – | > 30 µM | –
13 | O=C1CC(N2CCNCC2)C[C@@H]2C[C@H](c3c(O)ccc(Cl)c3Cl)CN12 (single isomer, unassigned) [Compound 207] | < 1000 nM | – | > 30 µM | –
14 | O=C1C[C@@H](O)C[C@@H]2C[C@H](c3c(O)ccc(Cl)c3Cl)CN12 (single isomer, unassigned; isomer 1) [Compound 61] | – | < 1000 nM | – | > 30 µM
15 | O=C1CC(O)C[C@@H]2C[C@H](c3c(O)ccc(Cl)c3Cl)CCN12 (stereo partly drawn) [Compound 250, (8R,9aS)-8-(2,3-dichloro-6-hydroxyphenyl)-2-hydroxy-octahydroquinolizin-4-one] | < 1000 nM | – | > 30 µM | –
16 | CC(=O)NC1CC(=O)N2C[C@@H](c3c(O)ccc(Cl)c3Cl)C[C@H]2C1 (stereo partly drawn) [Compound 206, N-[(2R,8aS)-2-(2,3-dichloro-6-hydroxyphenyl)-5-oxo-hexahydro-1H-indolizin-7-yl]acetamide] | < 1000 nM | – | > 30 µM | –
17 | NC[C@@H]1OC(=O)N2C[C@@H](c3c(O)ccc(Cl)c3Cl)C[C@@H]12 (single isomer, unassigned) [Compound 272] | < 1000 nM | – | < 30 µM | –
18 | O=C1C[C@@H](CN2CC(O)C2)C[C@@H]2C[C@H](c3c(O)ccc(Cl)c3Cl)CN12 (single isomer, unassigned) [Compound 242] | < 1000 nM | – | > 30 µM | –
19 | O=C1CN(C2CN(CCO)C2)C[C@@H]2C[C@H](c3c(O)ccc(Cl)c3Cl)CN12 [Compound 134, (7R,8aS)-7-(2,3-dichloro-6-hydroxyphenyl)-2-[1-(2-hydroxyethyl)azetidin-3-yl]-hexahydropyrrolo [1,2-a]pyrazin-4-one] | < 1000 nM | – | > 30 µM | –

Further lines, with some results ahead:

Row | IC50 [1, 3] | IC50 [1, 5] | Structure (SMILES) | IC50 [2, 4] | IC50 [2, 6]
20 | < 1000 nM | – | NC(=O)N1CC(=O)N2CC[C@@H](c3c(O)ccc(Cl)c3Cl)C[C@H]2C1 [Compound 96, (8R,9aS)-8-(2,3-dichloro-6-hydroxyphenyl)-4-oxo-hexahydro-1H-pyrido[1,2-a]pyrazine-2-carboxamide] | > 30 µM | –
21 | < 1000 nM | – | O=C(CO)N1CC(=O)N2CC[C@@H](c3c(O)ccc(Cl)c3Cl)C[C@H]2C1 [Compound 63, (8R,9aS)-8-(2,3-dichloro-6-hydroxyphenyl)-2-(2-hydroxyacetyl)-hexahydro-1H-pyrido[1,2-a]pyrazin-4-one] | < 30 µM | –
22 | < 1000 nM | – | O=C(N1CC[C@@H](O)C1)N1CC(=O)N2C[C@@H](c3c(O)ccc(Cl)c3Cl)C[C@H]2C1 [Compound 101, (7R,8aS)-7-(2,3-dichloro-6-hydroxyphenyl)-2-[(3R)-3-hydroxypyrrolidine-1-carbonyl]-hexahydropyrro[1,2-a]pyrazine-4-one] | > 30 µM | –
23 | < 1000 nM | – | NC(=O)CN1CC(=O)N2C[C@@H](c3c(O)ccc(Cl)c3Cl)C[C@H]2C1 [Compound 110, 2-[(7R,8aS)-7-(2,3-dichloro-6-hydroxyphenyl)-4-oxo-hexahydropyrrolo [1,2-a]pyrazin-2-yl]acetamide] | > 30 µM | –
24 | < 1000 nM | – | O=C1CC(N2CCNCC2)C[C@@H]2C[C@H](c3c(O)ccc(Cl)c3Cl)CN12 (stereo in doubt) [Compound 208, (2R,7R,8aS)-2-(2,3-dichloro-6-hydroxyphenyl)-7-(piperazin-1-yl)hexahydroindolizin-5(1H)-one] | < 10 µM | –
25 | < 1000 nM | – | O=C1CN(CCN2CCOCC2)C[C@@H]2C[C@H](c3c(O)ccc(Cl)c3Cl)CN12 [Compound 121, (7R,8aS)-7-(2,3-dichloro-6-hydroxyphenyl)-2-[2-(morpholin-4-yl)ethyl]-hexahydropyrrolo [1,2-a]pyrazin-4-one] | < 30 µM | –
26 | < 1000 nM | – | O=C1O[C@@H](CN2CCNCC2)[C@@H]2C[C@H](c3c(O)ccc(Cl)c3Cl)CN12 (single isomer, unassigned) [Compound 279] | < 30 µM | –
27 | < 1000 nM | – | CC1(C)OC(=O)N2C[C@@H](c3c(O)ccc(Cl)c3Cl)C[C@H]2C1O (stereo partly drawn) [Compound 257, (4aS,6R)-6-(2,3-dichloro-6-hydroxyphenyl)-4-hydroxy-3,3-dimethylhexahydro-1H-pyrrolo[1,2-c][1,3]oxazin-1-one] | > 30 µM | –
28 | < 1000 nM | – | O=C(CC(F)F)N1CC(=O)N2C[C@@H](c3c(O)ccc(Cl)c3Cl)C[C@H]2C1 [Compound 68, (7R,8aS)-7-(2,3-dichloro-6-hydroxyphenyl)-2-(3,3-difluoropropanoyl)-hexahydropyrrolo [1,2-a]pyrazin-4-one] | > 30 µM | –
